This is an account of results in patent US7557109B2, “Treatment for attention-deficit hyperactivity disorder” (priority 2001, dated 2009).

The subject of one series is wild-type mice. The series is described as follows: Open-field locomotor activity, wild-type littermates. In kind it is in vivo. From the text: Heterozygote coloboma mice were originally purchased from The Jackson Laboratory (Bar Harbor, Me.) and were bred and maintained in our colony. In the current study, 20 mutant mice and 25 wild-type littermates, all aged 8 to 10 weeks, were used. Animals were divided into 4 groups: mutant/drug-treatment (n=11), mutant/vehicle-control (n=9), wild-type/drug-treatment (n=13), wild-type/vehicle-control (n=12). Age and gender were balanced among groups. All animals were housed as littermates (2-4 mice per cage) and were maintained on ad libitum food and water with a 12 hr light/dark cycle.
Open-field testing was performed under normal lighting conditions. Mice were brought into the experimental room and allowed at least 1 hr of acclimatization. Thirty minutes prior to testing, animals received an ip. injection of either d-amphetamine (4 mg/kg), eltoprazine (0.5 mg/kg) or saline. The mice were then placed in the activity monitor arenas (27×27×20 cm, Med Associates). Four animals of matching genotype and treatment were tested at one time. Each testing session lasted 40 minutes, after which animals were returned to their home cages. An automated infrared beam array system measured locomotor activity (total distance traveled) and number of center entries (zone crossings).

For series [1], the system named is 5-HT1B knockout (1BKO) mice. Description: DRL-36s schedule after FR5 conditioning, 5-HT1B knockout mice. It counts as in vivo. As for the experimental part: Experiments were conducted in eight identical mouse operant chambers (16×14×13 cm) with stainless steel grid floors (ENV-307M; Med Associates Inc., Georgia, Vt., USA) housed in sound-insulating and ventilated cubicles. Each chamber was equipped with two ultra-sensitive retractable levers, one on each side of a food cup containing photocells to register nose poke behavior and in which a pellet dispenser delivered 20 mg food pellets (Formula A/I, P.J. Noyes Company Inc., Lancaster, N.H., USA). A red house light (50 lux) was located in the center of the wall opposite to the food cup and levers. Stimulus lights were located above each lever and above the food cup. Experimental sessions were controlled and data were recorded by a computer.
Mice trained on DRL procedure first received operant conditioning. DRL-36s task was adapted from procedures used in rats (O'Donnell and Seiden, supra). Briefly, mice first learned to respond for food under a DRL 6 sec schedule, which means that mice had to wait at least 6 seconds between successive lever presses in order to obtain a food reward. Subsequently the schedule requirement was increased every session in steps of 6 sec to 36 sec (DRL 36 sec). Each session started with the illumination of the house light, the stimulus light above the food cup and the presentation of the left lever for the duration of the session. […] If the mouse presses too soon, no reinforcement is given, the clock is reset to zero, and a new 36-sec waiting period starts. In this way, the DRL-36s schedule task primarily measures waiting strategies which reflect hyperactivity-impulsivity behaviors associated with ADHD. Animals were trained until performances on the DRL 36 sec schedule had stabilized (approximately 25 sessions). All training sessions lasted 60 min and were conducted 5 days per week from Monday-Friday. The total number of lever presses (responses), the total number of reinforcements, and the inter-response times (IRT) are recorded.
Data were analyzed as described elsewhere (Richards et al., J. Exp. Anal. Behav. 60:361-385, 1993; Sabol et al., Psychopharmacology 121:57-65, 1995). The inter-response time (IRT) analysis included three measures for the characterization of DRL 36 sec IRT distributions: peak area, peak location and burst ratio. Only peak area (PkA) and peak location (PkL) are presented. The PkA measure is the area of the obtained IRT distribution of a mouse above the corresponding negative exponential, a computation based on mean of obtained IRT durations excluding the burst component of IRT<3 sec (see Richards et al., supra, for details). […] PkL is calculated as the median of the area of the obtained IRT distribution above the corresponding negative exponential. […]

Another series deals with dopamine receptors. To be noted: read-out: Ki, affinity for dopamine receptors; cited from earlier work.
Another series deals with 5-HT receptor subtypes. To be noted: cited from earlier work.
The conditions of series [2]: broad range of doses; cited from earlier work.

In general, Ki refers to a measure of affinity in units of concentration, obtained from inhibition or displacement. Turning to `c1cc2c(c(N3CCNCC3)c1)OCCO2` [eltoprazine, 1-(2,3-dihydro-1,4-benzodioxanyl-5-yl) piperazine], the “locomotor activity (distance traveled or zones crossed)” value with wild-type mice (0.5 mg/kg i.p.) is “did not influence the locomotor activity”. Also, the “exploratory preference (center vs periphery of arena)” value in the series on wild-type mice (0.5 mg/kg i.p. (FIG. 6A, 6B)) is given as “no effect on exploratory preference”. In the series with wild-type mice (0.5 mg/kg i.p. vs saline (FIG. 6C, 6D)), the rearing behavior result is “same pattern of rearing behavior”. Moreover, the number of reinforcements entry in series [1] (0.5 mg/kg and 1 mg/kg i.p. (FIG. 13A)) is “significantly decreased reinforcements”. Also, the response rate entry in series [1] (0.5 mg/kg i.p. (FIG. 13B)) is “significantly decreased response rates”. Also, the Ki on dopamine receptors was over 1000 nM. The “affinity for the 5-HT1A, 5-HT1B, and 5-HT2C receptors” value in the series on 5-HT receptor subtypes is on record as “roughly equipotent affinity”. Besides, the “affinity for the 5-HT1D receptor” value in the series on 5-HT receptor subtypes (compared with serotonin) is recorded as “relatively low affinity”. Also, the “overall safety and tolerance” value in series [2] is reported as “good”.
